Laboratory results: patent US6680336B2, “Cyclic AMP-specific phosphodiesterase inhibitors” (ICOS Corporation, priority 1999, dated 2004)
Read-outs that look alike come from different tables or passages of the source.

Tests used:
recombinant human PDE4 [1] = target: T1, recombinant human PDE4; test: PDE4 inhibition, charcoal separation [32P]cAMP phosphodiesterase assay; type: biochemical
T1 construct: PDE4 IC50; other: human recombinant PDE4
Protocol: The compounds of structural formula (II) were tested for an ability to inhibit PDE4. The ability of a compound to inhibit PDE4 activity is related to the IC50 value for the compound, i.e., the concentration of inhibitor required for 50% inhibition of enzyme activity. The IC50 value for compounds of structural formula (II) were determined using recombinant human PDE4.
Recombinant production of human PDE1B, PDE2, PDE4A, PDE4B, PDE4C, PDE4D, PDE5, and PDE7 was carried out similarly to that described in Example 7 of U.S. Pat. No. 5,702,936, incorporated herein by reference, except that the yeast transformation vector employed, which is derived from the basic ADH2 plasmid described in Price et al., Methods in Enzymology, 185, pp. 308-318 (1990), incorporated yeast ADH2 promoter and terminator sequences and the Saccharomyces cerevisiae host was the protease-deficient strain BJ2-54 deposited on Aug. 31, 1998 with the American Type Culture Collection, Manassas, Va., under accession number ATCC 74465. Transformed host cells were grown in 2×SC-leu medium, pH 6.2, with trace metals, and vitamins. After 24 hours, YEP medium-containing glycerol was added to a final concentration of 2×YET/3% glycerol. Approximately 24 hr later, cells were harvested, washed, and stored at −70° C.
Phosphodiesterase activity of the preparations was determined as follows. PDE assays utilizing a charcoal separation technique were performed essentially as described in Loughney et al. (1996). In this assay, PDE activity converts [32P]cAMP or [32P]cGMP to the corresponding [32P]5′-AMP or [32P]5′-GMP in proportion to the amount of PDE activity present. The [32P]5′-AMP or [32P]5′-GMP then was quantitatively converted to free [32P]phosphate and unlabeled adenosine or guanosine by the action of snake venom 5′-nucleotidase. […] The assay was performed at 30° C. in a 100 μL reaction mixture containing (final concentrations) 40 mM Tris HCl (pH 8.0), 1 μM ZnSO4, 5 mM MgCl2, and 0.1 mg/mL bovine serum albumin (BSA). Alternatively, in assays assessing PDE1-specific activity, incubation mixtures further incorporated the use of 0.1 mM CaCl2 and 10 μg/mL calmodulin. PDE enzyme was present in quantities that yield <30% total hydrolysis of substrate (linear assay conditions). The assay was initiated by addition of substrate (1 mM [32P]cAMP or cGMP), and the mixture was incubated for 12 minutes. Seventy-five (75) μg of Crotalus atrox venom then was added, and the incubation was continued for 3 minutes (15 minutes total). The reaction was stopped by addition of 200 μL of activated charcoal (25 mg/mL suspension in 0.1 M […], pH 4). After centrifugation (750×g for 3 minutes) to sediment the charcoal, a sample of the supernatant was taken for radioactivity determination in a scintillation counter and the PDE activity was calculated.
Inhibitor analyses were performed similarly to the method described in Loughney et al., J. Biol. Chem., 271, pp. 796-806 (1996), except both cGMP and cAMP were used, and substrate concentrations were kept below 32 nM, which is far below the Km of the tested PDEs.

[2] = system: TNFα secretion in human peripheral blood lymphocytes; test: Lipopolysaccharide-stimulated TNFα release from human peripheral blood lymphocytes; type: cell-based; settings: for EC50: Lymphocyte, LPS-stimulated TNFα release from human PBL
Protocol: The compounds of structural formula (II) also were tested for an ability to reduce TNFα secretion in human peripheral blood lymphocytes. The ability to reduce TNFα secretion is related to the EC50 values i.e., the effective concentration pf the compound capable of inhibiting 50% of the total TNFα).
To assess the ability of a compound to reduce TNFα secretion in human peripheral blood lymphocytes (PBL), the following tests were performed.
Heparinized blood (approximately 30 mL) drawn from human volunteers was mixed 1:1 with Dulbecco's modified phosphate-buffered saline. This mixture was mixed 1:1 with HISTOPAQUE® and centrifuged at 1,500 rpm at room temperature without braking in the swinging bucket of a Beckman model TJ6 centrifuge. Erythrocytes were centrifuged to the bottom of the tubes, and serum remained at the surface of the tubes. A layer containing lymphocytes sedimented between the serum and HISTOPAQUE® layers, and was removed by aspiration to a fresh tube. The cells were quantified and adjusted to […] and a 100 μL aliquot is placed into the wells of a 96 well plate. Test compounds and RPMI media (Gibco/BRL Life Sciences) are added to each of the wells 15 minutes prior to addition of bacterial LPS ([…]). The mixture was allowed to incubate for 20 hours at 37° C. in a humidified chamber. The cells then were separated by centrifuging at 800 rpm for 5 minutes at room temperature. An aliquot of 180 μL of supernatant was transferred to a new plate for determination of TNFα concentration. TNFα protein in the cell supernatant fluids was measured using a commercially available enzyme-linked immunosorbent assay (ELISA) (CYTOSCREEN® Immunoassay Kit from Biosource International).
The cell-based assay provided the following results for various pyrrolidine compounds of the present invention. The EC50 values (i.e., effective concentration of the compound capable of inhibiting 50% of the total TNFα) illustrate the ability of the present compounds to inhibit LPS-stimulated TNFα release from human PBL.

female Balb/c mice = test: Combined mouse endotoxin-stimulated TNFα release and locomotor activity assay (mobility); type: in vivo
Protocol: The purpose of this study was to determine the efficacy of PDE4 inhibitors in vivo in an LPS mouse model together with a determination with respect to central nervous system (CNS) side-effects manifested by a decrease in spontaneous mobility.
The test animals were female Balb/c mice, having an average weight of about 20 g. […] Individual dose volumes (about 150 μL) were adjusted based on the body weights measured. One hour later, 5 mg/kQ LPS in a final volume of 200 μL was injected via the tail vein to each animal. Ninety minutes following the LPS treatment, the animals were bled and serum samples were collected before being stored at −70° C. until assayed.
Movement of the X-Y plane, or rearing up on the hind legs, was quantified by counting the number of “light-beam” crosses per unit of time. A decrease in the number of activity events is directly proportional to the mobility or immobilization of the animal. The quantitative scoring correlated well with the subjective measurements described above.
The following table summarizes the mouse locomotor activity assay as mobility (% activity) obtained by the above-described method: […]

[3] = in vivo; cited from earlier work
recombinant human PDE4 [4] = settings: reported value; read-out: IC50 with respect to inhibiting recombinant human PDE4; cited from earlier work

## CNC(C)[C@]1(C)CN(C(=O)OC)C[C@H]1c1ccc(OC)c(OC2CCCC2)c1 (mixture of isomers) [Example 19, Methyl (3S,4S)-4-(3-cyclopentyloxy-4-methoxyphenyl)-3-methyl-3-[(methylamino)ethylpyrrolidine Carboxylate]
Recombinant human PDE4 [1]
  IC50: 51.7 nM
[2]
  EC50: 59 nM
Female Balb/c mice
  Mobility (% activity at 50 mg/kg dose): 145%

## COc1ccc([C@@H]2CNC(=O)C2)cc1OC1CCCC1 (single isomer, unassigned) [(−)-enantiomer of rolipram]
[3]
  Emetic potential relative to the (+)-enantiomer: about ten-fold more emetic than the (+)-enantiomer

## COc1ccc([C@@H]2CN(Cc3ccccc3)C[C@@]2(C)C(C)N)cc1OC1CCCC1 (single isomer, unassigned) [Example 9]
Recombinant human PDE4 [1]
  IC50: 57.5 nM
[2]
  EC50: 609 nM
Female Balb/c mice
  Mobility (% activity at 50 mg/kg dose): 55%

## COc1ccc(C2CN(Cc3ccccc3)C[C@@]2(C)C(C)N)cc1OC1CCCC1 (stereo partly shown) [Example 20]
Recombinant human PDE4 [1]
  IC50: 22 nM
[2]
  EC50: 198 nM
Female Balb/c mice
  Mobility (% activity at 50 mg/kg dose): 93%

## COc1ccc(C2CNC(=O)C2)cc1OC1CCCC1 (stereo not shown) [Rolipram, reference compound]
[2]; preliminary experiments
  LPS-induced TNFα secretion from human lymphocytes: inhibit LPS-induced TNFα secretion from human lymphocytes in a dose-dependent fashion
Recombinant human PDE4 [4]
  IC50: ~200 nM

## COC(=O)N1CC(c2ccc(OC)c(OC3CCCC3)c2)C(C)(C(C)=O)C1 (stereo not shown) [structural formula (I)]
Recombinant human PDE4 [4]
  IC50: ~2 nM
